Results as given in US7183265B2, “Powdery product comprising crystalline β-maltose monohydrate, its preparation, and uses” (priority 2001, dated 2007).

What was measured:
Type in all cases: physicochemical
Hygroscopicity test = conditions: 25° C., RH 75.2%
Experimental: (§1) An open aluminum cup containing a sample was placed in a desiccator, set at a RH of 75.2% (equilibrated with a saturated sodium chloride aqueous solution), kept at 25° C. for three days, and then weighted. Hygroscopicity was expressed with percentage (%) of the increased weight to the initial weight of the sample.

Solidification test = assay: Solidification test
Source text: A sample in the aluminum cup, taken out after keeping three days in the above hygroscopicity test, was macroscopically observed. Solidification was judged from the appearance of the sample whether it was solidified or not by adsorbing moisture.

[1] = Crystallinity by powdery X-ray diffraction (method of Ruland)
Experimental: Crystallinity of powder was measured by the method of Ruland (Acta Crystallographica, Vol. 14, p. 1180, 1961) based on a powdery X-ray diffraction pattern using “[…]”, an X-ray diffractometer (Cu, Kα-ray) commercialized by Rigaku Corp., Tokyo, Japan.

[2] = Preservation stability of the powder
Experimental: as §1, with “sample. A sample in the aluminum cup, taken out after keeping three days in the above hygroscopicity test, was macroscopically observed. Solidification was judged from the appearance of the sample whether it was solidified or not by adsorbing moisture.” for “sample.”

hygroscopicity (in words) (Hygroscopicity test)	solidification (in words) (Solidification test)	Crystallinity (%) [1]	preservation stability (in words) [2]	SMILES
no hygroscopicity	no substantial solidification	82.6%		OCC1OC(OC2C(CO)OC(O)C(O)C2O)C(O)C(O)C1O (stereo not drawn) [No. 9, hydrous crystalline β-maltose, reference compound]
high hygroscopicity	heavy solidification	76.3%	unsatisfactory preservation stability	OC[C@H]1O[C@H](O[C@H]2[C@H](O)[C@@H](O)[C@H](O)O[C@@H]2CO)[C@H](O)[C@@H](O)[C@@H]1O [No. 10, anhydrous crystalline α-maltose]
